In patent US10925283B2, “Microbiocidal phenylamidine derivatives” (SYNGENTA PARTICIPATIONS AG, priority 2016, dated 2021):

Tests used:
Type in all cases: in vivo
[1] = test system: Puccinia recondita f. sp. tritici; assay: Puccinia recondita f. sp. tritici / wheat / leaf disc preventative (brown rust); conditions: foliar, wheat leaf segments cv. Kanzler, inoculated 1 day after application, assessed 7-9 days after application, read-out: control of Puccinia recondita f. sp. tritici (percent disease control compared to untreated)
Procedure: Puccinia recondita f. Sp. Tritici/Wheat/Leaf Disc Preventative (Brown Rust) Wheat leaf segments cv. Kanzler are placed on agar in multiwell plates (24-well format) and sprayed with the formulated test compound diluted in water. The leaf disks are inoculated with a spore suspension of the fungus 1 day after application. The inoculated leaf segments are incubated at 19° C. and 75% rh under a light regime of 12 h light/12 h darkness in a climate cabinet and the activity of a compound is assessed as percent disease control compared to untreated when an appropriate level of disease damage appears in untreated check leaf segments (7-9 days after application).

[2] = test system: Puccinia recondita f. sp. tritici; assay: Puccinia recondita f. sp. tritici / wheat / leaf disc curative (brown rust); conditions: foliar, wheat leaf segments cv. Kanzler, compound applied 1 day after inoculation, assessed 6-8 days after application, read-out: control of Puccinia recondita f. sp. tritici (percent disease control compared to untreated)
Procedure: Puccinia recondita f. Sp. Tritici/Wheat/Leaf Disc Curative (Brown Rust) Wheat leaf segments cv. Kanzler are placed on agar in multiwell plates (24-well format). The leaf segments are inoculated with a spore suspension of the fungus. Plates are stored in darkness at 19° C. and 75% rh. The formulated test compound diluted in water is applied 1 day after inoculation. The leaf segments are incubated at 19° C. and 75% rh under a light regime of 12 h light/12 h darkness in a climate cabinet and the activity of a compound is assessed as percent disease control compared to untreated when an appropriate level of disease damage appears in untreated check leaf segments (6-8 days after application).

[3] = test system: Blumeria graminis f. sp. tritici (Erysiphe graminis f. sp. tritici); assay: Blumeria graminis f. sp. tritici / wheat / leaf disc preventative (powdery mildew on wheat); conditions: foliar, wheat leaf segments cv. Kanzler, inoculated 1 day after application, assessed 6-8 days after application, read-out: control of Blumeria graminis f. sp. tritici (percent disease control compared to untreated)
Procedure: Blumeria graminis f. sp. tritici (Erysiphe graminis f. sp. tritici)/Wheat/Leaf Disc Preventative (Powdery Mildew on Wheat) Wheat leaf segments cv. Kanzler are placed on agar in a multiwell plate (24-well format) and sprayed with the formulated test compound diluted in water. The leaf disks are inoculated by shaking powdery mildew infected plants above the test plates 1 day after application. The inoculated leaf disks are incubated at 20° C. and 60% rh under a light regime of 24 h darkness followed by 12 h light/12 h darkness in a climate chamber and the activity of a compound is assessed as percent disease control compared to untreated when an appropriate level of disease damage appears on untreated check leaf segments (6-8 days after application).

[4] = test system: Phakopsora pachyrhizi; assay: Phakopsora pachyrhizi / soybean / preventative (soybean rust); conditions: foliar, soybean leaf disks, inoculated one day after application, assessed 12-14 days after application, read-out: control of Phakopsora pachyrhizi (percent disease control compared to untreated)
Procedure: Phakopsora pachyrhizi/Soybean/Preventative (Soybean Rust) Soybean leaf disks are placed on water agar in multiwell plates (24-well format) and sprayed with the formulated test compound diluted in water. One day after application leaf discs are inoculated by spraying a spore suspension on the lower leaf surface. After an incubation period in a climate cabinet of 24-36 hours in darkness at 20° C. and 75% rh leaf disc are kept at 20° C. with 12 h light/day and 75% rh. The activity of a compound is assessed as percent disease control compared to untreated when an appropriate level of disease damage appears in untreated check leaf disks (12-14 days after application).

Measured: pest or weed control at 200 ppm

CCN(C)/C=N/c1cc(OC)c(C(O)(COC2CCC(C)CC2)C(F)(F)F)cc1C (centres unmarked) [E.042, N-ethyl-N′-[5-methoxy-2-methyl-4-[2,2,2-trifluoro-1-hydroxy-1-[(4-methylcyclohexoxy)methyl]ethyl]phenyl]-N-methyl-formamidine]
≥ 80%: all assays above

CCN(C)/C=N/c1cc(OC)c(C(O)(COCc2ccc(C)cc2)C(F)(F)F)cc1C (centres unmarked) [E.027, N-ethyl-N′-[5-methoxy-2-methyl-4-[2,2,2-trifluoro-1-hydroxy-1-(p-tolylmethoxymethyl)ethyl]phenyl]-N-methyl-formamidine]
≥ 80%: all assays above

CCN(C)/C=N/c1cc(OC)c(C(O)(COCc2ccc(F)cc2)C(F)(F)F)cc1C (centres unmarked) [E.044, N-ethyl-N′-[5-methoxy-2-methyl-4-[2,2,2-trifluoro-1-[(4-fluorophenyl)methoxymethyl]-1-hydroxy-ethyl]phenyl]-N-methyl-formamidine]
≥ 80%: [1] | [3] | [4]

CCO/N=C(\C)CC(O)(c1cc(C)c(/N=C/N(C)CC)cc1OC)C(F)(F)F (centres unmarked) [E.057, N′-[4-[(3E)-3-ethoxyimino-1-hydroxy-1-(trifluoromethyl)butyl]-5-methoxy-2-methyl-phenyl]-N-ethyl-N-methyl-formamidine]
≥ 80%: all assays above

C#CCOCCC(O)(c1cc(C)c(/N=C/N(C)CC)cc1OC)C(F)(F)F (centres unmarked) [E.050, N-ethyl-N′-[4-[1-hydroxy-3-prop-2-ynoxy-1-(trifluoromethyl)propyl]-5-methoxy-2-methyl-phenyl]-N-methyl-formamidine]
≥ 80%: all assays above

CCN(C)/C=N/c1cc(OC)c(C(O)(CSc2ccccc2)C(F)(F)F)cc1C (centres unmarked) [E.072, N-ethyl-N′-[5-methoxy-2-methyl-4-[2,2,2-trifluoro-1-hydroxy-1-(phenylsulfanylmethyl)ethyl]phenyl]-N-methyl-formamidine]
≥ 80%: [1] | [3] | [4]

CCN(C)/C=N/c1cc(OC)c(C(O)(C/C(C)=N/OCc2ccccc2)C(F)(F)F)cc1C (centres unmarked) [E.081]
≥ 80%: all assays above

CCN(C)/C=N/c1cc(OC)c(C(O)(CON=C2CCCCC2)C(F)(F)F)cc1C (centres unmarked) [E.037, N′-[4-[1-[(cyclohexylideneamino)oxymethyl]-2,2,2-trifluoro-1-hydroxy-ethyl]-5-methoxy-2-methyl-phenyl]-N-ethyl-N-methyl-formamidine]
≥ 80%: all assays above

CCN(C)/C=N/c1cc(OC)c(C(O)(CCOc2ccccc2)C(F)(F)F)cc1C (centres unmarked) [E.054, N-ethyl-N′-[4-[1-hydroxy-3-phenoxy-1-(trifluoromethyl)propyl]-5-methoxy-2-methyl-phenyl]-N-methyl-formamidine]
≥ 80%: all assays above

CCO/N=C/CC(O)(c1cc(C)c(/N=C/N(C)CC)cc1OC)C(F)(F)F (centres unmarked) [E.056, N′-[4-[(3E)-3-ethoxyimino-1-hydroxy-1-(trifluoromethyl)propyl]-5-methoxy-2-methyl-phenyl]-N-ethyl-N-methyl-formamidine]
≥ 80%: all assays above

CCCOCC(O)(c1cc(C)c(/N=C/N(C)CC)cc1OC)C(F)(F)F (centres unmarked) [E.014, N-ethyl-N′-[5-methoxy-2-methyl-4-[2,2,2-trifluoro-1-hydroxy-1-(propoxymethyl)ethyl]phenyl]-N-methyl-formamidine]
≥ 80%: all assays above

CCN(C)/C=N/c1cc(OC)c(C(O)(C2CCOCC2)C(F)(F)F)cc1C (centres unmarked) [E.055, N-ethyl-N′-[5-methoxy-2-methyl-4-(2,2,2-trifluoro-1-hydroxy-1-tetrahydropyran-4-yl-ethyl)phenyl]-N-methyl-formamidine]
≥ 80%: all assays above

CCN(C)/C=N/c1cc(OC)c(C(O)(CCOCc2ccccc2)C(F)(F)F)cc1C (centres unmarked) [E.051, N′-[4-[3-benzyloxy-1-hydroxy-1-(trifluoromethyl)propyl]-5-methoxy-2-methyl-phenyl]-N-ethyl-N-methyl-formamidine]
≥ 80%: all assays above

CCN(C)/C=N/c1cc(OC)c(C(O)(CSc2ccc(F)cc2)C(F)(F)F)cc1C (centres unmarked) [E.068, N-ethyl-N′-[5-methoxy-2-methyl-4-[2,2,2-trifluoro-1-[(4-fluorophenyl)sulfanylmethyl]-1-hydroxy-ethyl]phenyl]-N-methyl-formamidine]
≥ 80%: all assays above

C#CCOCC(O)(c1cc(C)c(/N=C/N(C)CC)cc1OC)C(F)(F)F (centres unmarked) [E.041, N-ethyl-N′-[5-methoxy-2-methyl-4-[2,2,2-trifluoro-1-hydroxy-1-(prop-2-ynoxymethyl)ethyl]phenyl]-N-methyl-formamidine]
≥ 80%: all assays above

CCN(C)/C=N/c1cc(OC)c(C(O)(COc2ccccc2)C(F)(F)F)cc1C (centres unmarked) [E.047, N-ethyl-N′-[5-methoxy-2-methyl-4-[2,2,2-trifluoro-1-hydroxy-1-(phenoxymethyl)ethyl]phenyl]-N-methyl-formamidine]
≥ 80%: all assays above

CC#CCOCCC(O)(c1cc(C)c(/N=C/N(C)CC)cc1OC)C(F)(F)F (centres unmarked) [E.049, N′-[4-[3-but-2-ynoxy-1-hydroxy-1-(trifluoromethyl)propyl]-5-methoxy-2-methyl-phenyl]-N-ethyl-N-methyl-formamidine]
≥ 80%: all assays above

CCN(C)/C=N/c1cc(OC)c(C(O)(COCc2ccccc2)C(F)(F)F)cc1C (centres unmarked) [E.043, N′-[4-[1-(benzyloxymethyl)-2,2,2-trifluoro-1-hydroxy-ethyl]-5-methoxy-2-methyl-phenyl]-N-ethyl-N-methyl-formamidine]
≥ 80%: [1] | [3] | [4]

CCN(C)/C=N/c1cc(OC)c(C(O)(C2CCC(OC(C)C)CC2)C(F)(F)F)cc1C (centres unmarked) [E.078, N-ethyl-N′-[5-methoxy-2-methyl-4-[2,2,2-trifluoro-1-hydroxy-1-(4-isopropoxycyclohexyl)ethyl]phenyl]-N-methyl-formamidine]
≥ 80%: all assays above

CCOCC(O)(c1cc(C)c(/N=C/N(C)CC)cc1OC)C(F)(F)F (centres unmarked) [E.002, N′-[4-[1-(ethoxymethyl)-2,2,2-trifluoro-1-hydroxy-ethyl]-5-methoxy-2-methyl-phenyl]-N-ethyl-N-methyl-formamidine]
≥ 80%: all assays above
